Measured values reported in ChEMBL document CHEMBL1857833, “Screening and optimization of specific chemical series against human African Trypanosomiasis (HAT)”.
In brackets after ≈: the same amount, converted by molar mass. Several values for one entry are separate records, joined by “and”; a condition that tells them apart may be missing. Identical values can stand only once.

How the values were obtained:
[1] = DNDI: Cytotoxicity against L929 mouse fibroblasts, CYTO-SP, 24 hour; assay type: toxicity, cell-based; settings: mouse, L929 mouse fibroblasts
[2] = DNDI: Cytotoxicity against L929 mouse fibroblasts, 72 hour.; assay type: toxicity, cell-based; settings: mouse, L929 mouse fibroblasts
[3] = test system: Trypanosoma brucei; test: DNDI: Inhibition of Human African Trypanosomiasis, Cross 22, in vitro; assay type: functional, organism-based
[4] = test system: Trypanosoma brucei; test: DNDI: Inhibition of Human African Trypanosomiasis, SBRI 427, in vitro; assay type: functional, organism-based
[5] = DNDI: Lipophilicity measured in Chromatographic hydrophobicity index (CHI) assay, pH 7.4; assay type: physicochemical; settings: buffer
[6] = DNDI: Solubility in phosphate buffered saline at pH7.4 measured by nephelometry at room temperature (NEPH-RT); assay type: physicochemical; settings: pH 7.4
[7] = test system: Trypanosoma cruzi; test: DNDI: Inhibition of Chagas Disease parasite Trypanosoma cruzi (Tulahuen LacZ, Clone C4), in vitro.; assay type: functional, organism-based
[8] = DNDI: Cytotoxicity against L-6 rat myoblasts from skeletal muscle cells; assay type: toxicity, cell-based, L6; settings: L-6 rat skeletal muscle myoblasts
[9] = test system: Trypanosoma brucei rhodesiense; test: DNDI: Inhibition of Human African Trypanosomiasis (HAT), STIB 900, in vitro; assay type: functional, organism-based
[10] = test system: Leishmania donovani; test: DNDI: Inhibition of formation of Leishmania donovani (strain MHOM/ET/67/L82) axenic amastigotes, in vitro.; assay type: functional, organism-based
[11] = test system: Plasmodium falciparum; test: DNDI: Inhibition of the malaria parasite Plasmodium falciparum, in vitro; assay type: functional, organism-based; settings: K1
[12] = mouse, microsomes, 1 µM
Description: DNDI: in vitro intrinsic clearance in mouse liver microsomes at a concentration of 1uM

[13] = in vitro; settings: mouse, liver microsomes, t (1 / 2)
Description: DNDI: half life in mouse liver microsomes at a concentration of 1uM

[14] = Trypanosoma brucei, SBRI 427, read-out: IC50

Compound: CC(C)(C)c1ccc(-c2nc(CNC3CCCCCC3)co2)cc1
- IC50 at 24 h [1]: > 50 µg/mL
- IC50 at 72 h [2]: < 3.13 µg/mL
- IC50 [3]: 0.44 µg/mL (≈ 1.35 µM)
- IC50 [4]: 0.3 µg/mL and 0.49 µg/mL
- IC50 [4, 14]: 0.39 µg/mL (≈ 1.19 µM)
- chromatographic logD [5]: 5.41
- solubility kinetic [6]: 25 µM (≈ 8.16 µg/mL)

Compound: CCCCCC(C)NCc1coc(-c2ccc(Cl)c(Cl)c2)n1 (stereo not given)
- IC50 [7]: 22.2 µg/mL (≈ 65 µM)
- IC50 at 24 h [1]: 17 µg/mL (≈ 49.8 µM)
- IC50 [8]: 13.3 µg/mL (≈ 39 µM)
- IC50 at 72 h [2]: 4.75 µg/mL (≈ 13.9 µM)
- IC50 [4, 14]: 3.68 µg/mL (≈ 10.8 µM)
- IC50 [9]: 0.487 µg/mL (≈ 1.43 µM)
- IC50 [10]: 16 µg/mL (≈ 46.9 µM)
- IC50 [11]: 4.3 µg/mL (≈ 12.6 µM)

Compound: Brc1ccc(-c2nc(CNC3CCCCCC3)co2)cc1
- IC50 at 24 h [1]: > 50 µg/mL
- IC50 at 72 h [2]: 15.7 µg/mL (≈ 44.9 µM)
- IC50 [3]: 3.56 µg/mL (≈ 10.2 µM)
- IC50 [4]: 3.22 µg/mL and 1.69 µg/mL and 3.92 µg/mL

Compound: O/N=C1/CCCCCN1
- IC50 [7]: > 30 µg/mL
- IC50 at 24 h [1]: > 50 µg/mL
- IC50 [8]: > 90 µg/mL
- IC50 at 72 h [2]: > 10 µg/mL
- IC50 [4, 14]: > 5 µg/mL
- IC50 [9]: > 90 µg/mL
- IC50 [10]: > 90 µg/mL
- IC50 [11]: > 5 µg/mL

Compound: Clc1ccc(-c2nc(CNC3[C@H]4C[C@@H]5C[C@@H](C[C@H]3C5)C4)co2)cc1 (stereo not given in full)
- IC50 at 24 h [1]: > 50 µg/mL
- IC50 at 72 h [2]: 6.73 µg/mL (≈ 19.6 µM)
- IC50 [3]: 2.29 µg/mL (≈ 6.68 µM)
- IC50 [4]: 2.01 µg/mL and 2.82 µg/mL
- IC50 [4, 14]: 1.8 µg/mL (≈ 5.25 µM)

Compound: CCCCOc1ccc(-c2nc(CNCCC3CCCN3C)co2)cc1 (stereo not given)
- IC50 at 72 h [2]: 2.9 µg/mL (≈ 8.11 µM)
- IC50 [4, 14]: 0.31 µg/mL (≈ 0.867 µM)
- chromatographic logD [5]: 4.64
- solubility kinetic [6]: 2 µM (≈ 0.715 µg/mL)
- CLint in vitro [12]: 12 µL/min/mg
- half-life at 1 µM [13]: 73 min

Compound: CCOc1ccc(-c2nc(CNC3CCCCCC3)co2)cc1
- IC50 at 24 h [1]: 25.1 µg/mL (≈ 80 µM)
- IC50 at 72 h [2]: < 3.13 µg/mL
- IC50 [3]: 1.12 µg/mL (≈ 3.56 µM)
- IC50 [4]: 1.36 µg/mL and 0.96 µg/mL
- IC50 [4, 14]: 1.46 µg/mL (≈ 4.64 µM)
- CLint in vitro [12]: 22 µL/min/mg
- half-life at 1 µM [13]: 39 min

Compound: COc1ccc(/C(=N\O)Nc2ccccc2)cc1
- IC50 at 24 h [1]: > 50 µg/mL
- IC50 [4, 14]: 2.72 µg/mL (≈ 11.2 µM)
- chromatographic logD [5]: 3.1
- solubility kinetic [6]: > 200 µM
- CLint in vitro [12]: 121 µL/min/mg
- half-life at 1 µM [13]: 7 min

Compound: C[C@@H]1[C@H]2C[C@@H](C[C@H]1NCc1coc(-c3ccc(Br)cc3)n1)C2(C)C
- IC50 at 24 h [1]: > 50 µg/mL
- IC50 at 72 h [2]: < 3.13 µg/mL
- IC50 [3]: 0.82 µg/mL (≈ 2.11 µM)
- IC50 [4]: 0.42 µg/mL and 0.92 µg/mL and 0.85 µg/mL

Compound: C[C@@H]1[C@H]2C[C@@H](C[C@H]1NCc1coc(-c3ccc(C(C)(C)C)cc3)n1)C2(C)C
- IC50 at 24 h [1]: > 50 µg/mL
- IC50 at 72 h [2]: > 50 µg/mL
- IC50 [3]: > 5 µg/mL
- IC50 [4, 14]: > 5 µg/mL

Compound: CCCCOc1ccc(-c2nc(CNC[C@@H]3CC[C@H]4C[C@@H]3C4(C)C)co2)cc1
- IC50 at 24 h [1]: 16.4 µg/mL (≈ 42.9 µM)
- IC50 at 72 h [2]: < 3.13 µg/mL
- IC50 [3]: 1.03 µg/mL (≈ 2.69 µM)
- IC50 [4]: 1.54 µg/mL and 0.83 µg/mL and 0.57 µg/mL
- CLint in vitro [12]: 95 µL/min/mg
- half-life at 1 µM [13]: 9 min

Compound: CCCCCOc1ccc(-c2nc(CNCCC3CCCN3C)co2)cc1 (stereo not given)
- IC50 at 72 h [2]: 1.21 µg/mL (≈ 3.26 µM)
- IC50 [4, 14]: 0.14 µg/mL (≈ 0.377 µM)
- chromatographic logD [5]: 5.2
- solubility kinetic [6]: < 1 µM
- CLint in vitro [12]: 11 µL/min/mg
- half-life at 1 µM [13]: 76 min

Compound: C[C@H]1C(NCc2coc(-c3ccc(Cl)cc3)n2)C[C@@H]2C[C@H]1C2(C)C (stereo not given in full)
- IC50 at 24 h [1]: > 50 µg/mL
- IC50 at 72 h [2]: < 3.13 µg/mL
- IC50 [3]: 0.9 µg/mL (≈ 2.61 µM)
- IC50 [4]: 0.71 µg/mL and 0.8 µg/mL
- IC50 [4, 14]: 1.06 µg/mL (≈ 3.07 µM)

Compound: Brc1ccc(-c2nc(CNC3[C@H]4C[C@@H]5C[C@@H](C[C@H]3C5)C4)co2)cc1 (stereo not given in full)
- IC50 at 24 h [1]: > 50 µg/mL
- IC50 at 72 h [2]: 8.08 µg/mL (≈ 20.9 µM)
- IC50 [3]: 2.26 µg/mL (≈ 5.83 µM)
- IC50 [4]: 1.2 µg/mL and 3.02 µg/mL and 2.81 µg/mL

Compound: CC(C)(C)c1ccc(-c2nc(CNC[C@@H]3CC[C@H]4C[C@@H]3C4(C)C)co2)cc1
- IC50 at 24 h [1]: > 50 µg/mL
- IC50 at 72 h [2]: > 50 µg/mL
- IC50 [3]: > 5 µg/mL
- IC50 [4, 14]: > 5 µg/mL

Compound: CC1CC(NCc2coc(-c3ccc(Br)cc3)n2)CC(C)(C)C1 (stereo not given)
- IC50 at 24 h [1]: > 50 µg/mL
- IC50 at 72 h [2]: < 3.13 µg/mL
- IC50 [3]: 0.87 µg/mL (≈ 2.31 µM)
- IC50 [4]: 0.54 µg/mL and 0.97 µg/mL and 1.17 µg/mL

Compound: CC1(C)[C@H]2CC[C@@H](CNCc3coc(-c4ccc(Br)cc4)n3)[C@@H]1C2
- IC50 at 24 h [1]: > 50 µg/mL
- IC50 at 72 h [2]: 50 µg/mL (≈ 128 µM)
- IC50 [3]: > 5 µg/mL
- IC50 [4, 14]: > 5 µg/mL

Compound: COc1ccc(CNC(CC(C)C)c2nc(Cc3ccccc3)c(N3CCOCC3)o2)cc1 (stereo not given)
- IC50 at 72 h [2]: > 10 µg/mL
- IC50 [4, 14]: 2.23 µg/mL (≈ 4.96 µM)
- chromatographic logD [5]: > 5.2
- solubility kinetic [6]: 25 µM (≈ 11.2 µg/mL)
- CLint in vitro [12]: 463 µL/min/mg
- half-life at 1 µM [13]: 2 min

Compound: CCCCCOc1ccc(-c2nc(CNC3CC(C)CC(C)(C)C3)co2)cc1 (stereo not given)
- IC50 at 24 h [1]: > 50 µg/mL
- IC50 at 72 h [2]: < 3.13 µg/mL
- IC50 [4, 14]: 0.16 µg/mL (≈ 0.416 µM)
- chromatographic logD [5]: 6.02
- solubility kinetic [6]: 2 µM (≈ 0.769 µg/mL)
- CLint in vitro [12]: 8 µL/min/mg
- half-life at 1 µM [13]: 107 min
